In brackets after ≈: the same amount, converted by molar mass. Read-outs that look alike come from different tables or passages of the source.
What was measured:
M. tuberculosis LeuRS = M. tuberculosis LeuRS (Mycobacterium tuberculosis, UniProt P9WFV1); experiment: biochemical; design: species or system M. tuberculosis H37Rv
Vero cells = experiment: In vitro cytotoxicity assay (MTT); type: cell-based, African green monkey; conditions: Chlorocebus sabaeus, 72 h
Experimental: Vero epithelial cells (from African green monkey; ATCC CCL-81) were cultured in Dulbecco's modified Eagle's medium (DMEM) supplemented with 10% fetal bovine serum (FBS) and maintained in a humidified incubator (37°C in 5% CO2). Cells were dislodged with a cell scraper, collected by centrifugation, resuspended in fresh medium at ∼10^6 cells/ml, dispensed into 96-well microtiter plates ([…]), and incubated for 18 h at 37°C. Twofold serial dilutions of test compounds in DMEM with FBS were subsequently added, and cells were incubated for another 72 h. In triplicate studies, the cytopathic effects of compounds were evaluated colorimetrically by using the 3-(4,5-dimethyl-2-thiazolyl)-2,5-diphenyl-2H-tetrazolium bromide (MTT) cell proliferation assay (ATCC). IC50 data were obtained from dose-response curves plotted by using GraphPad Prism 5.

M. tuberculosis H37Rv [1] = experiment: MIC for M. tuberculosis H37Rv (resazurin/alamarBlue); type: cell-based, Mycobacterium tuberculosis; conditions: for MIC: Mycobacterium tuberculosis, H37RV, read-out: MIC M.tb H37Rv
in vitro = in vitro ADME; conditions: mouse plasma, 1 and 10 µg/ml, ultrafiltration; read-out: Mouse PPB (converted)
Experimental: Compounds were added to 1.5-ml aliquots of mouse plasma at concentrations of 1 and 10 µg/ml and then incubated in a shaking water bath at 37°C for 15 min. Both samples were treated similarly, and a 0.5-ml aliquot was removed from each tube and added to the filter reservoir of Microcon centrifugal filter devices (Ultracel YM-30 with a molecular mass cutoff of 30 kDa). The devices were centrifuged at 1,000 × g for 10 min, and 100 μl of the filtrate was transferred to a 96-well plate and diluted 5-fold. Ten-microliter volumes of the samples were injected and analyzed with the LC-MS/MS system. All samples were analyzed in duplicate. Quantitation was based on the peak area ratio of the analyte over the internal standard, and all integrations were performed with peak areas by using Analyst version 1.4.1 (Applied Biosystems, Foster City, CA, USA). Plasma protein binding was calculated based on the following equation: Plasma Protein Binding (%)=(PeakAreaPlasma UltrafilrateSpiked−PeakAreaPlasmaFiltrate)/PeakAreaPlasma UltrafiltrateSpiked×100

[2] = target: M. tuberculosis LeuRS editing domain (Mycobacterium tuberculosis, UniProt P9WFV1); experiment: biochemical; type: binding
M. tuberculosis LeuRS editing domain, sequence (P9WFV1 309-513): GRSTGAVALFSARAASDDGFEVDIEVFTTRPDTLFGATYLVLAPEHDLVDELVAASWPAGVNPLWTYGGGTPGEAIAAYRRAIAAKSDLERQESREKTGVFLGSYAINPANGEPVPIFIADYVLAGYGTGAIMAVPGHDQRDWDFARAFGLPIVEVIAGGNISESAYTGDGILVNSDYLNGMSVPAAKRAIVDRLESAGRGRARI

in vivo = experiment: in vivo
Experimental: Mouse pharmacokinetic studies were conducted by using female CD-1 mice for compounds 1, 11, and 12, while BALB/c mice were used for compound 13. Mouse body weights were 19 to 28 g, and on the morning of dosing, mice were split randomly into 3 dosing groups to receive the test article by either intravenous (i.v.) tail vein injection or oral (p.o.) gavage. After dosing, blood samples were collected via cardiac puncture at specific time points (n = 3 mice/time point) through 24 h (K2EDTA as an anticoagulant) and processed for plasma. Antibiotic concentrations in the plasma samples were analyzed by liquid chromatography-tandem mass spectrometry (LC-MS/MS). The LC-MS/MS analysis was conducted by using analyte/internal standard peak area methods. The internal standard was AN3365 ([21]), and the instrument used was an API4000 QTRAP instrument (AB Sciex). The limit of quantitation (LOQ) was 1 or 2 ng/ml. Pharmacokinetic analyses of the mean plasma concentration-time profiles were performed by using WinNonlin Pro version 5.2. A compartmental model was used for the data for i.v. dosing, and a noncompartmental model was used for the data for p.o. dosing. […] Compounds 1 and 13 were formulated in saline (0.9% [wt/vol] NaCl) at 7.5 mg/ml, and the pH was adjusted to >5 by the addition of NaOH. Compound 11 was formulated to 6.5 mg/ml in water-dimethylacetamide-ethanol (EtOH) (76:19:5), and the pH was adjusted to >5 by the addition of NaOH. Compound 12 was formulated to 7.5 mg/ml in PEG 300-propylene glycol (PG)-water (55:25:20), and the pH was adjusted to >5 by the addition of NaOH.

COX1 in HepG2 cells = experiment: Mitochondrial protein synthesis assay, COX1 level; type: cell-based; conditions: Homo sapiens, 168 h; HepG2, 7 days; read-out: Mean EC50 ± SD COX1
Experimental: (§1) The human liver carcinoma-derived HepG2 cell line was obtained from the ATCC (ATCC HB-8065). HepG2 cells were grown in Dulbecco's modified Eagle's medium containing 10% fetal calf serum, 1 mM sodium pyruvate, 0.1 mM essential amino acids, and 50 U/ml penicillin-streptomycin at 37°C with 5% CO2. HepG2 cells were seeded into 96-well plates at 3,000 cells/200 μl/well in cell culture medium. Cells were then grown in the presence of the compounds at 37°C in 10% CO2 for 7 days in at least duplicate concentrations, with the medium and compounds being replaced on the fourth day. After 7 days, the levels of SDHA (subunit A of the succinate dehydrogenase complex) and COX1 (cytochrome c oxidase) were determined by using the MitoSciences In-Cell enzyme-linked immunosorbent assay (ELISA) kit. Janus green staining was used to determined cell viability after 7 days (In-Cell ELISA kit, catalog number MS643).

HepG2 cells = experiment: HepG2 cell viability (Janus green staining); type: cell-based; conditions: Homo sapiens, 168 h, HepG2, 7 days, read-out: Mean EC50 ± SD Cell viability
Experimental: as §1

SDHA in HepG2 cells = experiment: Mitochondrial protein synthesis assay, SDHA level; type: cell-based; conditions: Homo sapiens, 168 h; HepG2, 7 days; read-out: Mean EC50 ± SD SDHA
Experimental: as §1

M. tuberculosis H37Rv [3] = type: in vivo, C57BL/6J mice; conditions: mouse, in vivo
[4] = female, CD-1, mouse, in vivo, iv, 15 mg/kg

M. tuberculosis LeuRS, sequence (P9WFV1 whole entry): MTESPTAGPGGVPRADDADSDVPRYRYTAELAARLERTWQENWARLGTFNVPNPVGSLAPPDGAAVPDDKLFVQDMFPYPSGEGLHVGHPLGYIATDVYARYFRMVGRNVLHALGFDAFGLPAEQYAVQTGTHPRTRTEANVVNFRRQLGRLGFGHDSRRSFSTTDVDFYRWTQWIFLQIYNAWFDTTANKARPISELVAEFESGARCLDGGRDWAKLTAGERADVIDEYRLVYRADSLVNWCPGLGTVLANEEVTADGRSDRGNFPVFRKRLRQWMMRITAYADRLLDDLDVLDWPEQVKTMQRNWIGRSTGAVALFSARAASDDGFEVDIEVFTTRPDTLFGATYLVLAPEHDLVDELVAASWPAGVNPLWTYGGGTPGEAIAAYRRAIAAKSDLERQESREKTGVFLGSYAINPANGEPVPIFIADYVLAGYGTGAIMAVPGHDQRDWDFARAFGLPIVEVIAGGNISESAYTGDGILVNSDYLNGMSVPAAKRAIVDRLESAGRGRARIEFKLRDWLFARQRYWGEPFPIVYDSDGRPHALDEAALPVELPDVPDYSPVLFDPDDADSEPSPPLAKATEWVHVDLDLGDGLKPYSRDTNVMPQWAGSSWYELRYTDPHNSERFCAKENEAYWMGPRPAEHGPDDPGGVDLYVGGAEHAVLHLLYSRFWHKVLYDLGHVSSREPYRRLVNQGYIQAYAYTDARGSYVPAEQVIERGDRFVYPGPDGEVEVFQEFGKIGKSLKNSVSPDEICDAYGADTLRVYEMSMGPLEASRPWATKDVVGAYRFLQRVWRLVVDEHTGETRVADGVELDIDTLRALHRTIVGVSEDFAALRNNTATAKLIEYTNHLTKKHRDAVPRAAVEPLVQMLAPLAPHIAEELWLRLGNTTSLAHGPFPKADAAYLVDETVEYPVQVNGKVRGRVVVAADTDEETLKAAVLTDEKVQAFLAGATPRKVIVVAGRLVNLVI

## CCOc1cc(Cl)cc2c1B(O)OC2CN (stereo not shown) [Compound 5]
M. tuberculosis LeuRS; read-out: IC50 M.tb LeuRS
  IC50: 0.38 µM
Vero cells
  EC50: 43 µM
M. tuberculosis H37Rv [1]
  MIC M.tb H37Rv: ≥ 1.1 µg/mL
  MIC: 1.2 µg/mL (≈ 4.97 µM)

## CCOc1cccc2c1B(O)O[C@H]2CN [Compound 3]
M. tuberculosis LeuRS; read-out: IC50 M.tb LeuRS
  IC50: 21 µM
Vero cells
  EC50: > 50 µM

## CCOc1ccc(Br)c2c1B(O)OC2CN (stereo not shown) [Compound 11]
In vitro
  fraction unbound: 0.5
M. tuberculosis LeuRS
  IC50: 0.11 µM
Vero cells
  EC50: > 50 µM
M. tuberculosis H37Rv [1]; M. tuberculosis H37Rv
  improvement of MIC values over compound 1: more than 5 fold
M. tuberculosis H37Rv [1]
  MIC: 0.05 µg/mL (≈ 0.175 µM)
[2]
  Kd: 0.04 µM
  No. of sites: 1.02
  ΔGap: -10.0 kcal/mol
  ΔHap: -5.5 kcal/mol
  −TΔSap: -4.6 kcal/mol
In vivo; [4]
  AUC(0-inf): 45800 ng·h/mL
  Cmax: 18000 ng/mL
  MRT: 3 h
  Vd: 0.968 L/kg
  clearance: 5.47 mL/min/kg
In vivo; female, CD-1, mouse, in vivo, iv, 15 mg/kg, α-t1/2, mouse
  half-life: 0.09 h
In vivo; female, CD-1, mouse, in vivo, iv, 15 mg/kg, β-t1/2, mouse
  half-life: 2.08 h
In vivo; mouse, i.v., 15 mg/kg
  α-t1/2 % AUC: 2 % AUC
  β-t1/2 % AUC: 98 % AUC
In vivo; mouse, in vivo, po, 30 mg/kg
  AUC(0-t): 35900 ng·h/mL
  Cmax: 7200 ng/mL
  Tmax: 1 h
  bioavailability: 39%
In vivo; mouse, in vivo, po, 30 mg/kg, Terminal t1/2, mouse
  half-life: 2.7 h

## CC[C@H]1OC(=O)[C@H](C)[C@@H](O[C@H]2C[C@@](C)(OC)[C@@H](O)[C@H](C)O2)[C@H](C)[C@@H](O[C@@H]2O[C@H](C)C[C@H](N(C)C)[C@H]2O)[C@](C)(O)C[C@@H](C)C(=O)[C@H](C)[C@@H](O)[C@]1(C)O [Erythromycin, erythromycin]
COX1 in HepG2 cells
  EC50: > 150 µM
HepG2 cells
  EC50: > 150 µM
SDHA in HepG2 cells
  EC50: > 150 µM

## O=C(N[C@H](CO)[C@H](O)c1ccc([N+](=O)[O-])cc1)C(Cl)Cl [Chloramphenicol, chloramphenicol]
COX1 in HepG2 cells
  EC50: 31.4 ± 23.2 µM
HepG2 cells
  EC50: 110 ± 14.1 µM
SDHA in HepG2 cells
  EC50: > 150 µM

## C[C@H]1c2cccc(O)c2C(=O)C2=C(O)[C@]3(O)C(=O)C(C(N)=O)=C(O)[C@@H](N(C)C)[C@@H]3[C@@H](O)[C@@H]21 [Doxycycline, doxycycline]
COX1 in HepG2 cells
  EC50: 23.7 ± 6.4 µM
HepG2 cells
  EC50: 118 ± 35.5 µM
SDHA in HepG2 cells
  EC50: 109 ± 29 µM

## CC(=O)NC[C@H]1CN(c2ccc(N3CCOCC3)c(F)c2)C(=O)O1 [Linezolid, linezolid]
COX1 in HepG2 cells
  EC50: 27.3 ± 10.8 µM
HepG2 cells
  EC50: > 150 µM
M. tuberculosis H37Rv [1]
  MIC values used in kill kinetics experiment: 0.6 µg/mL (≈ 1.78 µM)
M. tuberculosis H37Rv [3]
  reduction in CFU: 2.6 log10
SDHA in HepG2 cells
  EC50: > 150 µM

## NCC1OB(O)c2ccccc21 (stereo not shown) [AN3017]
M. tuberculosis LeuRS; read-out: IC50 M.tb LeuRS
  IC50: 0.64 µM
M. tuberculosis H37Rv [1]
  MIC: 1.8 µg/mL (≈ 11 µM)

## OCCCOc1cccc2c1B(O)OC2 [AN3016]
M. tuberculosis LeuRS; read-out: IC50 M.tb LeuRS
  IC50: 3.5 µM
M. tuberculosis H37Rv [1]
  MIC M.tb H37Rv: 1.0 µg/mL (≈ 4.81 µM)
  MIC: 1 µg/mL (≈ 4.81 µM)
